# Reference: patent US11564911B2, “Small molecule dual-inhibitors of TRPV4 and TRPA1 for sanitizing and anesthetizing” (Duke University, priority 2016, dated 2023)
# Assays:
# [1] = target: TRPV4 (Rattus norvegicus, UniProt Q9ERZ8); experiment: Ca++ imaging in primary astrocytes, GSK101 stimulation; assay type: cell-based; conditions: 5 nM GSK101
# Method: FIGS. 28A-28B: Compound 16-8 inhibits TRPV4 in I° cells more potently than GSK205. […] Inset: Chondrocytes responding to activation with GSK101, fura-2 Ca++ imaging; right-hand image taken at 5 sec after GSK101 application. […] (FIG. 28B) 1° (primary) astrocytes (rat); dose-response comparison between 16-8 and GSK205 in response to 5 nM GSK101. Inset: Astrocytes responding to activation with GSK101; right-hand image taken at 5 sec after GSK101 application (mean±SEM, n=5 independent expts, 200 cells/expt; *p<0.05, t-test).
# Astrocyte cultures were conducted following established protocols^64-66. Astrocytes were prepared from Sprague Dawley rat embryos (E18). Briefly, the isolated cortices were minced, and then incubated with trypsin and DNase. Dissociated cells were suspended in Dulbeccco's Modified Eagle's Medium (DMEM) supplemented with 10% fetal calf serum and penicillin/streptomycin (100 U/ml and 100 μg/ml, respectively). Thereafter, cell sus-pensions were plated in 75 cm^2 tissue culture flasks (10×10^6 cells/flask) which were pre-coated with poly-L-lysine (10 μg/ml). The cells were maintained in a […] incubator at 37° C.
# [2] = Stability of compound in plasma; conditions: 4 h incubation in plasma at 37° C.
# Description: Results are expressed as means±SEM, n=6 mice/experimental group for all experiments.
# [3] = target: T1, TRPV4 (Mus musculus, UniProt Q9EPK8); experiment: Ca++ transients in primary mouse keratinocytes on chemical activation of TRPV4 (GSK101, 4α-PDD); assay type: cell-based; conditions: 1° MK, 5 nM GSK101; GSK205 20 μM
# T1 construct: endogenous in cells; host or cells: primary mouse epidermal keratinocytes (1° MK)
# Method: Ca++ imaging of mouse 1° MK in response to chemical activation of TRPV4 was conducted after loading with 2 μM fura2-AM, following a ratiometric Ca2+ imaging protocol with 340/380 nm […] for dual excitation. Ratios of emissions were acquired at 0.5 Hz. ΔR/R0 was determined as the fraction of the increase of a given ratio over baseline ratio, divided by baseline ratio. For stimulation of cells with UVB, where fura-2 was not suitable because of the proximity of stimulation with 340/380 nm and 295 nm, 2 μM fluo4-AM was used instead. Ca++ imaging was carried out at 488 nm excitation, acquisition of emissions at 0.5 Hz, expressed as ΔF/F0. In the custom-built UV optical system, UV LEDs were capped with a ball lens, a transparent optical window in the shape of a hemispherical lens (FIG. 2B). The LED output optical beam focused at 15-20 mm from the lens, with a spot diameter of approximately 1.5-2.0 mm (FIG. 2C). […] The thermal equilibration stage was set for physiological temperature. We confirmed the non-thermal nature of UVB stimulation using the customized 295 nm LED device in a dedicated experiment (FIG. 2D), thus confirming the specific modality of stimulation as UVB.
# [4] = system: primary mouse keratinocytes (1° MK); experiment: IL-1β secreted by cultured keratinocytes after UVB exposure (ELISA); assay type: cell-based; conditions: 5 μM GSK205
# Method: Before UV irradiation, culture media was replaced with PBS. The cells were then irradiated at a dose of 50 mJ/cm^2 with UVB. 24 hours later, supernatants were assayed using IL-1β ELISA (R&D Systems, Minneapolis, Minn.).
# [5] = system: mice, UVB-exposed hind paws; experiment: UVB-evoked nocifensive behavior after topical GSK205 (Hargreaves, von Frey); assay type: in vivo, mouse
# Method: Behavioral tests were performed to evaluate the decrease in withdrawal thresholds in response to mechanical von Frey hair or thermal stimuli applied to hind paws. […]. These withdrawal thresholds were ascertained before and after UV exposure. Mice were exposed using a Bio Rad Gel Doc 2000 UV transilluminator (302 nm) for 5 minutes with an exposure of 600 mJ/cm^2, 3-5 days after the last application of tamoxifen/oil.
# GSK205 topical treatment: A viscous solution of 68% EtOH/5% glycerol plus 1 mM or 5 mM GSK205 (none for control) was applied to hindpaws by rubbing in 20 μL, applied at time-points 1 hour and again 10 min before UV exposure.
# Behavioral tests were performed to evaluate the decrease in withdrawal thresholds in response to mechanical or thermal stimuli applied to hind paws. These withdrawal thresholds were ascertained before and after UVB exposure. Mice were confined by plexi-glass enclosures on top of 25×26 cm Bio Rad Gel Doc 2000 UV transilluminator (302 nm), and otherwise allowed to openly explore this environment. UV-exposure lasted for 5 minutes with an exposure of 600 mJ/cm^2.
# Hindpaw mechanical withdrawal thresholds were determined by the automated von Frey hair method, using a 0.5 mm diameter stainless steel filament, part of an automated plantar touch stimulator (Ugo Basile, Modena, Italy). Relevant detail included pre-test acclimatization in a quiet room for 30 min, conducting the test at the same time of day and blinded observers. The stimulus was delivered to the hindpaw, automatically discontinued upon withdrawal, and its intensity recorded automatically. 6-8 trials per animal were conducted, with equal exposure of both hindpaws, leading to an average withdrawal threshold. Results are reported as […], which was calculated by subtracting post-treatment from pre-treatment measurements, expressed as % or relative to 1.0.
# Hindpaw thermal (hot) withdrawal thresholds were determined by the well-established Hargreaves' method, using an infra-red thermal stimulation device that delivers the stimulus from underneath the hindpaw combined with automatic shut-off upon withdrawal (Ugo Basile). Stimulation and measurements were conducted as described for von Frey hair testing. A cutoff of 20 sec was set to prevent tissue damage.
# T1 sequence (Q9EPK8 whole entry): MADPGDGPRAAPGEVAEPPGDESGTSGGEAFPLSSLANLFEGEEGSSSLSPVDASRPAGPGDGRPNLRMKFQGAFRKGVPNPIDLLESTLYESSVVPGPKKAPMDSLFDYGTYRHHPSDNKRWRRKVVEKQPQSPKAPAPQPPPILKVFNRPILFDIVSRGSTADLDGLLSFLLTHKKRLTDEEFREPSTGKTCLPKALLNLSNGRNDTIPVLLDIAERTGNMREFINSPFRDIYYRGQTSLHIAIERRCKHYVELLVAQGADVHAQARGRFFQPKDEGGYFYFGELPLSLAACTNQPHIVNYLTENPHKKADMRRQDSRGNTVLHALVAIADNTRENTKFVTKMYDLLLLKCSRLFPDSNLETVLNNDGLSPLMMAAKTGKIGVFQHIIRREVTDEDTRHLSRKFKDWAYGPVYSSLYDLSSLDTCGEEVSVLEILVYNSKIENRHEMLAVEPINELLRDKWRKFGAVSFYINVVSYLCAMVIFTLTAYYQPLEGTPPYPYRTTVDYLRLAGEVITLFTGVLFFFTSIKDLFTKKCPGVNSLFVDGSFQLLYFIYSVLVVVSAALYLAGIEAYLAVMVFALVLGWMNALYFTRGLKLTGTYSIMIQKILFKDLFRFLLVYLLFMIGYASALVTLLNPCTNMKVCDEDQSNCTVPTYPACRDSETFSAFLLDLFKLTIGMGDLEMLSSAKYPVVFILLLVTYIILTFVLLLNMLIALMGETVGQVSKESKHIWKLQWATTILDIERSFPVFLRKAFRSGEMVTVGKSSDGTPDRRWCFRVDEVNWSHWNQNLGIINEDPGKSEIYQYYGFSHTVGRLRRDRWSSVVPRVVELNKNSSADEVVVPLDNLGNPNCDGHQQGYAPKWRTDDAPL
# Chain of TRPV4 (Rattus norvegicus, UniProt Q9ERZ8) (Q9ERZ8 whole entry): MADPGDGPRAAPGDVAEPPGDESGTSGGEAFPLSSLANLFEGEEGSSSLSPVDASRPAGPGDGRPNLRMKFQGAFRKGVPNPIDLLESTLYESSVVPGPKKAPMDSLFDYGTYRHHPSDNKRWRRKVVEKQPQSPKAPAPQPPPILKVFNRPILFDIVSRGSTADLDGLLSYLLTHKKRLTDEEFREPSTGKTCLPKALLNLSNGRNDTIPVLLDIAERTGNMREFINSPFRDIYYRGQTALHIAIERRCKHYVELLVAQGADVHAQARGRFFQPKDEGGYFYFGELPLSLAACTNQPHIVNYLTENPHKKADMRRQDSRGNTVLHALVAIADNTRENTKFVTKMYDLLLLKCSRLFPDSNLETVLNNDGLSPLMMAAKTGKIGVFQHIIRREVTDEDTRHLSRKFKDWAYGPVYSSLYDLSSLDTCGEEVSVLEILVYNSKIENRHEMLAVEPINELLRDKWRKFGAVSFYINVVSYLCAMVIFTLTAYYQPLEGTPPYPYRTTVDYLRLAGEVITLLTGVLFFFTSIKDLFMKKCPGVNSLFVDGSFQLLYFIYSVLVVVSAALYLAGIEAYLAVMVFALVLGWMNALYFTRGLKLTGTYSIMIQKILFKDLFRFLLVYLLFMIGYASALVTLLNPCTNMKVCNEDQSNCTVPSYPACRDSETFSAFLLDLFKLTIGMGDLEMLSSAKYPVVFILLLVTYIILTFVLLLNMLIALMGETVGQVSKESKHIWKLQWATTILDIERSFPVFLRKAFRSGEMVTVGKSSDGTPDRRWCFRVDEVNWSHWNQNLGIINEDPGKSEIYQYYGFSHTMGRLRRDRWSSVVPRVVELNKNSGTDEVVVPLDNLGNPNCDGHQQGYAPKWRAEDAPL
smiles,measurement,setting,value
CN(CCc1ccc(Nc2nc(-c3ccccc3)cs2)cc1)Cc1ccccc1 [Compound 16-8],"potency versus GSK205, dose-response of peak ΔCa++",[1],significantly increased potency
CCN(CCc1ccc(Nc2nc(-c3ccccc3)cs2)cc1)Cc1ccccc1 [Compound 16-19],stability in plasma,[2],no loss of detectable compound
CN(CCc1ccc(Nc2nc(-c3cccnc3)cs2)cc1)Cc1ccccc1 [GSK205],GSK101-evoked Ca++ transient,[3],completely blocked
same,UVB-induced increase in IL-1β secretion by 1° MK,[4],completely eliminated
same,delay in thermal hypersensitivity after UVB,"[5]; topical 1 mM GSK205, WT mice",~24 h
same,off-target effects on withdrawal behavior,"[5]; topical 5 mM GSK205, Trpv4−/− mice vs vehicle",did not elicit off-target effects
same,sensitivity to von Frey hair mechanical stimulation after UVB,"[5]; topical 5 mM GSK205, WT mice",significantly reduced sensitivity
same,thermally-evoked nocifensive behavior after UVB,"[5]; topical 5 mM GSK205, WT mice",sustained attenuation
